Results from patent US20260224584A1 (priority 2023, published 2026).
Counter-ions that a name gives are not always drawn.

Test system: Human WB (90%) CD69
Assay: Human WB (90%) CD69
Type: cell-based
Conditions: read-out: Human WB (90%) CD69 IC50 (nM); human whole blood (90%), CD69 readout

SMILES | IC50 [nM]
CC(C)N1CCN(c2ccc(-c3cc(NCCN4CCOCC4)c4nc(C5COC5)n(C)c4c3)cc2)CC1 [Example 45, 6-(4-(4-isopropylpiperazin-1-yl)phenyl)-1-methyl-N-(2-morpholinoethyl)-2-(oxetan-3-yl)-1H-benzo[d]imidazol-4-amine] | 473
Cc1nc2c(NC3CCN(C4COC4)CC3)cc(-c3ccc(N4CCN(C(C)C)CC4)cc3)cc2n1C [Example 57, 6-(4-(4-isopropylpiperazin-1-yl)phenyl)-1,2-dimethyl-N-(1-(oxetan-3-yl)piperidin-4-yl)-1H-benzo[d]imidazol-4-amine] | 188
Cc1cc(C)nc(Nc2cc(-c3ccc(N4CCN(C(C)C)CC4)cc3)cc3c2nc(C)n3C)c1 [Example 6, N-(4,6-dimethylpyridin-2-yl)-6-(4-(4-isopropylpiperazin-1-yl)phenyl)-1,2-dimethyl-1H-benzo[d]imidazol-4-amine] | 25
Cc1cc(C)nc(Nc2cc(-c3ccc(N4CCN(C(C)C)CC4)cc3)cc3c2nc(-c2cc[nH]c2)n3C)c1 [Example 51, N-(4,6-dimethylpyridin-2-yl)-6-(4-(4-isopropylpiperazin-1-yl)phenyl)-1-methyl-2-(1H-pyrrol-3-yl)-1H-benzo[d]imidazol-4-amine] | 61
Cc1ccc(Nc2cc(-c3ccc(N4CCN(C(C)C)CC4)cc3)cc3c2nc(C)n3C)nc1 [Example 22, 6-(4-(4-isopropylpiperazin-1-yl)phenyl)-1,2-dimethyl-N-(5-methylpyridin-2-yl)-1H-benzo[d]imidazol-4-amine] | 762
Cc1nc2c(NCCN3CCC(F)(F)CC3)cc(-c3ccc(N4CCN(C(C)C)CC4)cc3)cc2n1C [Example 7, N-(2-(4,4-difluoropiperidin-1-yl)ethyl)-6-(4-(4-isopropylpiperazin-1-yl)phenyl)-1,2-dimethyl-1H-benzo[d]imidazol-4-amine] | 923
Cc1nc2c(NCc3cccc(S(C)(=O)=O)c3)cc(-c3ccc(N4CCN(C(C)C)CC4)cc3)cc2n1C [Example 12, 6-(4-(4-isopropylpiperazin-1-yl)phenyl)-1,2-dimethyl-N-(3-(methylsulfonyl)benzyl)-1H-benzo[d]imidazol-4-amine] | 971
Cc1cc(C)nc(Nc2cc(-c3ccc(N4CCN(C(C)C)CC4)cc3)cc3c2nc(C2COC2)n3C)c1 [Example 44, N-(4,6-dimethylpyridin-2-yl)-6-(4-(4-isopropylpiperazin-1-yl)phenyl)-1-methyl-2-(oxetan-3-yl)-1H-benzo[d]imidazol-4-amine] | 282
Cc1cc(C)nc(Nc2cc(-c3ccc(N4CCN(C(C)C)CC4)cc3)cc3c2nc(C2CCS(=O)(=O)CC2)n3C)c1 [Example 41, 4-(4-((4,6-dimethylpyridin-2-yl)amino)-6-(4-(4-isopropylpiperazin-1-yl)phenyl)-1-methyl-1H-benzo[d]imidazol-2-yl)tetrahydro-2H-thiopyran 1,1-dioxide. TFA] | 128
CC(C)N1CCN(c2ccc(-c3cc(NC4CCN(C5COC5)CC4)c4nc(-c5ccc(S(C)(=O)=O)cc5)n(C)c4c3)cc2)CC1 [Example 62, 6-(4-(4-isopropylpiperazin-1-yl)phenyl)-1-methyl-2-(4-(methylsulfonyl)phenyl)-N-(1-(oxetan-3-yl)piperidin-4-yl)-1H-benzo[d]imidazol-4-amine, 2 TFA] | 111
CC(C)N1CCN(c2ccc(-c3cc(NCc4ccc(CN5CCOCC5)cc4)c4nc(C5CCS(=O)(=O)CC5)n(C)c4c3)cc2)CC1 [Example 43, 4-(6-(4-(4-isopropylpiperazin-1-yl)phenyl)-1-methyl-4-((4-(morpholinomethyl)benzyl)amino)-1H-benzo[d]imidazol-2-yl)tetrahydro-2H-thiopyran 1,1-dioxide, 2 TFA] | 396
Cc1nc2c(Nc3ncccn3)cc(-c3ccc(N4CCN(C(C)C)CC4)cc3)cc2n1C [Example 21, 6-(4-(4-isopropylpiperazin-1-yl)phenyl)-1,2-dimethyl-N-(pyrimidin-2-yl)-1H-benzo[d]imidazol-4-amine] | 1640
